Measurements as given in patent US8648066B2 (Exelixis, Inc., priority 2009, dated 2014).

Each compound was assayed against mTOR/GbL/Raptor (mTORC1) (Homo sapiens, UniProt P42345) (assay: mTOR/GbL/Raptor (mTORC1) ELISA assay). Conditions: phosphorylation of 4E-BP1; 0.2 nM mTORC1, 10 μM ATP; read-out: IC50 in this assay (mTORC1 ELISA).
Assay type: biochemical
Procedure, shortened: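 ELISA read-out: phospho-4E-BP1 captured on Ni-chelate plates and detected with anti-phospho antibody plus HRP-anti-IgG luminescence. The kinase step ran 120 min at ambient temperature with 0.2 nM human mTORC1, 10 µM ATP, 50 nM His-4E-BP1, 10 mM MnCl2, pH 7.2 HEPES.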

Row | IC50 [nM] | SMILES
1 | 250 to 1000 | COC(=O)Nc1nc2ncc(-c3ccc4c(c3)CN(c3ccnc5cc(OC)c(OC)cc35)CCO4)cc2[nH]1 [Example 210, methyl (6-{4-[6,7-bis(methyloxy)quinolin-4-yl]-2,3,4,5-tetrahydro-1,4-benzoxazepin-7-yl}-1H-imidazo[4,5-b]pyridin-2-yl)carbamate]
2 | 1000 to 2000 | CCN1CCc2c(ncnc2N2CCOc3ccc(-c4ccc5nc(C)[nH]c5c4)cc3C2)C1 [Example 211, 4-(7-ethyl-5,6,7,8-tetrahydropyrido[3,4-d]pyrimidin-4-yl)-7-(2-methyl-1H-benzimidazol-6-yl)-2,3,4,5-tetrahydro-1,4-benzoxazepine]
3 | 250 to 1000 | Cc1nc2c(C)cc(-c3ccc4c(c3)CN(c3ncnc5cccnc35)CCO4)cc2[nH]1 [Example 214, 7-(2,4-dimethyl-1H-benzimidazol-6-yl)-4-pyrido[3,2-d]pyrimidin-4-yl-2,3,4,5-tetrahydro-1,4-benzoxazepine]
4 | ≤ 10 | CC1(C)CCc2ncnc(N3CCOc4ccc(-c5ccc6nc(NCCF)[nH]c6c5)cc4C3)c2C1 [Example 215, 6-[4-(6,6-dimethyl-5,6,7,8-tetrahydroquinazolin-4-yl)-2,3,4,5-tetrahydro-1,4-benzoxazepin-7-yl]-N-(2-fluoroethyl)-1H-benzimidazol-2-amine]
5 | ≤ 10 | CCc1nc2cc(-c3ccc4c(c3)CN(c3ncnc5c3CC(C)(C)CC5)CCO4)cnc2[nH]1 [Example 220, 4-(6,6-dimethyl-5,6,7,8-tetrahydroquinazolin-4-yl)-7-(2-ethyl-3H-imidazo[4,5-b]pyridin-6-yl)-2,3,4,5-tetrahydro-1,4-benzoxazepine]
6 | ≤ 10 | CC1(C)CCc2ncnc(N3CCOc4ccc(-c5cnc6nc[nH]c6c5)cc4C3)c2C1 [Example 221, 4-(6,6-dimethyl-5,6,7,8-tetrahydroquinazolin-4-yl)-7-(1H-imidazo[4,5-b]pyridin-6-yl)-2,3,4,5-tetrahydro-1,4-benzoxazepine]
7 | 250 to 1000 | Cn1ccc2cc(-c3ccc4c(c3)CN(c3ccnc5ccccc35)CCO4)cnc21 [Example 222]
8 | 50 to 250 | Nc1nc2ncc(-c3ccc4c(c3)CN(c3ncnc5cccnc35)CCO4)cc2[nH]1 [Example 227, 6-(4-pyrido[3,2-d]pyrimidin-4-yl-2,3,4,5-tetrahydro-1,4-benzoxazepin-7-yl)-1H-imidazo[4,5-b]pyridin-2-amine]
9 | ≤ 10 | Cc1nc2ncc(-c3ccc4c(c3)CN(c3ncnc5c3CC(C)(C)CC5)CCO4)cc2[nH]1 [Example 234, 4-(6,6-dimethyl-5,6,7,8-tetrahydroquinazolin-4-yl)-7-(2-methyl-1H-imidazo[4,5-b]pyridin-6-yl)-2,3,4,5-tetrahydro-1,4-benzoxazepine]
10 | ≤ 10 | CC1(C)CCc2ncnc(N3CCOc4ccc(-c5ccc6nc(N)[nH]c6c5)cc4C3)c2C1 [Example 236, 6-[4-(6,6-dimethyl-5,6,7,8-tetrahydroquinazolin-4-yl)-2,3,4,5-tetrahydro-1,4-benzoxazepin-7-yl]-1H-benzimidazol-2-amine]
11 | ≤ 10 | CC1(C)CCc2ncnc(N3CCOc4ccc(-c5cnc6[nH]c(CF)nc6c5)cc4C3)c2C1 [Example 238, 4-(6,6-dimethyl-5,6,7,8-tetrahydroquinazolin-4-yl)-7-[2-(fluoromethyl)-3H-imidazo[4,5-b]pyridin-6-yl]-2,3,4,5-tetrahydro-1,4-benzoxazepine]
12 | ≥ 2000 | COc1ccc2c(N3CCOc4ccc(-c5ccc(-c6nc7ccccc7[nH]6)cc5)cc4C3)nc(C)nc2c1 [Example 240, 7-[4-(1H-benzimidazol-2-yl)phenyl]-4-[2-methyl-7-(methyloxy)quinoazlin-4-yl]-2,3,4,5-tetrahydro-1,4-benzoxazepine]
13 | 250 to 1000 | Cc1nc2ccc(-c3ccc4c(c3)CN(c3ccnc5cc(F)ccc35)CCO4)cc2[nH]1 [Example 241, 4-(7-fluoroquinolin-4-yl)-7-(2-methyl-1H-benzimidazol-6-yl)-2,3,4,5-tetrahydro-1,4-benzoxazepine]
14 | 50 to 250 | CCNc1nc2ccc(-c3ccc4c(c3)CN(c3cc(C)nc5ccccc35)CCO4)cc2[nH]1 [Example 246, N-ethyl-6-[4-(2-methylquinolin-4-yl)-2,3,4,5-tetrahydro-1,4-benzoxazepin-7-yl]-1H-benzimidazol-2-amine]

Further lines, the compound ahead of its results:

Row | SMILES | IC50 [nM]
15 | CC(C)Nc1nc2ccc(-c3ccc4c(c3)CN(c3ccnc5ccccc35)CCO4)cc2[nH]1 [Example 209, N-(1-methylethyl)-6-(4-quinolin-4-yl-2,3,4,5-tetrahydro-1,4-benzoxazepin-7-yl)-1H-benzimidazol-2-amine] | ≥ 2000
16 | CC1(C)CCc2ncnc(N3CCOc4ccc(-c5ccc(-c6ncc[nH]6)cc5)cc4C3)c2C1 [Example 213, 4-(6,6-dimethyl-5,6,7,8-tetrahydroquinazolin-4-yl)-7-[4-(1H-imidazol-2-yl)phenyl]-2,3,4,5-tetrahydro-1,4-benzoxazepine] | ≤ 10
17 | Cc1ncnc(N2CCOc3ccc(-c4cc5[nH]c(N)nc5cn4)cc3C2)c1Cc1ccc(F)cc1 [Example 216, 6-(4-{5-[(4-fluorophenyl)merthyl]-6-methylpyrimidin-4-yl}-2,3,4,5-tetrahydro-1,4-benzoxazepin-7-yl)-1H-imidazo[4,5-c]pyridin-2-amine] | 10 to 50
18 | Cc1ncnc(N2CCOc3ccc(-c4cnc5sc(N)nc5c4)cc3C2)c1Cc1ccc(F)cc1 [Example 217, 6-(4-{5-[(4-fluorophenyl)methyl]-6-methylpyrimidin-4-yl}-2,3,4,5-tetrahydro-1,4-benzoxazepin-7-yl)[1,3]thiazolo[5,4-b]pyridin-2-amine] | ≤ 10
19 | Cc1ccc2ncnc(N3CCOc4ccc(-c5cnc6nc(N)[nH]c6c5)cc4C3)c2c1 [Example 218, 6-[4-(6-methylquinazolin-4-yl)-2,3,4,5-tetrahydro-1,4-benzoxazpin-7-yl]-1H-imidazo[4,5-b]pyridin-2-amine] | ≤ 10
20 | CC1(C)CCc2ncnc(N3CCOc4ccc(-c5cnc6[nH]c(C7CC7)nc6c5)cc4C3)c2C1 [Example 224, 7-(2-cyclopropyl-3H-imidazo[4,5-b]pyridin-6-yl)-4-(6,6-dimethyl-5,6,7,8-tetrahydroquinazolin-4-yl)-2,3,4,5-tetrahydro-1,4-benzoxazepine] | ≤ 10
21 | CCCc1nc2cc(-c3ccc4c(c3)CN(c3ncnc5c3CC(C)(C)CC5)CCO4)cnc2[nH]1 [Example 225, 4-(6,6-dimethyl-5,6,7,8-tetrahydroquinazolin-4-yl)-7-(2-propyl-3H-imidazo[4,5-b]pyridin-6-yl)-2,3,4,5-tetrahydro-1,4-benzoxazepine] | ≤ 10
22 | Nc1ccc(-c2ccc3c(c2)CN(c2ccnc4ccccc24)CCO3)cn1 [Example 226, 5-(4-quinolin-4-yl-2,3,4,5-tetrahydro-1,4-benzoxazepin-7-yl)pyridin-2-amine] | 10 to 50
23 | CCNc1nc2ccc(-c3ccc4c(c3)CN(c3nc(C)nc5ccccc35)CCO4)cc2[nH]1 [Example 228, N-ethyl-6-[4-(2-methylquinazolin-4-yl)-2,3,4,5-tetrahydro-1,4-benzoxazepin-7-yl)-1H-benzimidazol-2-amine] | 50 to 250
24 | CC1(C)CCc2ncnc(N3CCOc4ccc(-c5cnc6[nH]c(C(F)F)nc6c5)cc4C3)c2C1 [Example 229, 7-[2-(difluoromethyl)-3H-imidazo[4,5-b]pyridin-6-yl]-4-(6,6-dimethyl-5,6,7,8-tetrahydroquinazolin-4-yl)-2,3,4,5-tetrahydro-1,4-benzoxazepine] | ≤ 10
25 | CCNc1nc2ncc(-c3ccc4c(c3)CN(c3ccncn3)CCO4)cc2[nH]1 [Example 230, N-ethyl-6-(4-pyrimidin-4-yl-2,3,4,5-tetrahydro-1,4-benzoxazepin-7-yl)-1H-imidazo[4,5-b]pyridin-2-amine] | 50 to 250
26 | Nc1nc2ccc(-c3ccc4c(c3)CN(c3nc(-c5ccccc5)nc5ccccc35)CCO4)cc2[nH]1 [Example 233, 6-[4-(2-phenylquinazolin-4-yl)-2,3,4,5-tetrahydro-1,4-benzoxazepin-7-yl]-1H-benzimidazol-2-amine] | 50 to 250
27 | CCNc1nc2ccc(-c3ccc4c(c3)CN(c3nc(C)nc5cc(OC)ccc35)CCO4)cc2[nH]1 [Example 237, N-ethyl-6-{4-[2-methyl-7-(methyloxy)quinazolin-4-yl]-2,3,4,5-tetrahydro-1,4-benzoxazepin-7-yl}-1H-benzimidazol-2-amine] | 250 to 1000
28 | CNC(=O)c1ccc(-c2ccc3c(c2)CN(c2ccnc4ccccc24)CCO3)cc1 [Example 239, N-methyl-4-(4-quinolin-4-yl-2,3,4,5-tetrahydro-1,4-benzoxazepin-7-yl)benzamide] | 50 to 250
29 | Cc1nc2ccc(-c3ccc4c(c3)CN(c3ccnc5cc(C#N)ccc35)CCO4)cc2[nH]1 [Example 242, 4-[7-(2-methyl-1H-benzimidazol-6-yl)-2,3-dihydro-1,4-benzoxazepin-4(5H)-yl]quinolin-7-carbonitrile] | ≥ 2000
30 | CCNC(=O)c1ccc(-c2ccc3c(c2)CN(c2ccnc4ccccc24)CCO3)cc1 [Example 243, N-ethyl-4-(4-quinolin-4-yl-2,3,4,5-tetrahydro-1,4-benzoxazepin-7-yl)benzamide] | 50 to 250
31 | CCCNC(=O)c1ccc(-c2ccc3c(c2)CN(c2ccnc4ccccc24)CCO3)cc1 [Example 244, N-propyl-4-(4-quinolin-4-yl-2,3,4,5-tetrahydro-1,4-benzoxazepin-7-yl)benzamide] | 50 to 250
32 | CCc1ncnc(N2CCOc3ccc(-c4cnc5nc(C)[nH]c5c4)cc3C2)c1C [Example 245, 4-(6-ethyl-5-methylpyrimidin-4-yl)-7-(2-methyl-1H-imidazo[4,5-b]pyridin-6-yl)-2,3,4,5-tetrahydro-1,4-benzoxazepine] | 50 to 250
33 | CCNc1nc2ccc(-c3ccc4c(c3)CN(c3cc(C)nc5cc(OC)ccc35)CCO4)cc2[nH]1 [Example 247, N-ethyl-6-{4-[2-methyl-7-(methyloxy)quinolin-4-yl]-2,3,4,5-tetrahydro-1,4-benzoxazepin-7-yl}-1H-benzimidazol-2-amine] | 250 to 1000
